pIC50, pKi: −log10 of the molar value. One block for each molecule: values may come before it. Calls of active or inactive are those of the source. The rule behind the calls is not given here.
What was measured:
[1] = Displacement of [3H]-DTG from sigma-2 receptor in human RT4 cell homogenates in presence of (+)-pentazocine; type: tissue-based; conditions: rt-4
RPMI-8226 [2] = assay: Induction of lipid peroxidation in human RPMI8226 cells at 23 uM after 5 to 24 hrs by flow cytometric analysis; type: functional, cell-based
RPMI-8226 [3] = assay: Induction of apoptosis in human RPMI8226 cells assessed as caspase-9 activation at 23 uM by flow cytometric analysis in presence of […]; type: functional, cell-based; conditions: TDE = time-dependent effect
HL-60 = assay: Cytotoxicity against human HL60 cells assessed as cell viability at 20 uM after 72 hrs by MTT assay; type: functional, cell-based
RPMI-8226 [4] = assay: Induction of autophagy in human RPMI8226 cells assessed as […] at 23 uM by Western blotting analysis; type: functional, cell-based; conditions: TDE = time-dependent effect
[5] = molecular target: Sigma non-opioid intracellular receptor 1 (Homo sapiens, UniProt Q99720); assay: Displacement of [3H]-(+)-pentazocine from sigma-1 receptor in human RPMI8226 cells; type: cell-based, RPMI-8226
RPMI-8226 [6] = assay: Induction of apoptosis in human RPMI8226 cells at 23 uM after 6 hrs by annexin V-FITC/propidium iodide staining-based flow cytometric analysis; type: functional, cell-based
RPMI-8226 [7] = assay: Induction of autophagy in human RPMI8226 cells assessed as p62 protein expression at 23 uM after 48 hrs by Western blotting analysis in presence of 3-methyladenine; type: functional, cell-based
[8] = molecular target: Sigma non-opioid intracellular receptor 1 (Cavia porcellus, UniProt Q60492); assay: Displacement of [3H]-(+)-pentazocine from sigma-1 receptor in guinea pig brain homogenates; type: tissue-based
RPMI-8226 [9] = assay: Induction of apoptosis in human RPMI8226 cells assessed as early apoptotic cells at 23 uM after 48 hrs by annexin V-FITC/propidium iodide staining-based flow cytometric analysis; type: functional, cell-based
RPMI-8226 [10] = assay: Induction of autophagy in human RPMI8226 cells assessed as […] protein level at 23 uM after 6 to 96 hrs by Western blotting analysis in presence of alpha-tocopherol; type: functional, cell-based
RPMI-8226 [11] = assay: Selectivity ratio of Ki for sigma-2 receptor in human RT4 cell homogenates to Ki for sigma-1 receptor in human RPMI8226 cells; type: cell-based
RPMI-8226 [12] = assay: Induction of apoptosis in human RPMI8226 cells assessed as early/late apoptotic cells at 23 uM after 48 hrs by annexin V/propidium iodide staining-based flow cytometric analysis in presence of alpha-tocopherol; type: functional, cell-based
RPMI-8226 [13] = assay: Induction of autophagy in human RPMI8226 cells assessed as […] protein expression at 23 uM after 48 hrs by Western blotting analysis in presence of wortmannin; type: functional, cell-based
RPMI-8226 [14] = assay: Induction of autophagy in human RPMI8226 cells assessed as p62 protein expression at 23 uM after 6 to 96 hrs by Western blotting analysis; type: functional, cell-based
[15] = Selectivity ratio of Ki for sigma-2 receptor in rat liver homogenates to Ki for sigma-1 receptor in guinea pig brain homogenates; type: tissue-based
RPMI-8226 [16] = assay: Induction of apoptosis in human RPMI8226 cells assessed as early apoptotic cells at 23 uM after 24 to 48 hrs by annexin V/propidium iodide staining-based flow cytometric analysis in presence of alpha-tocopherol; type: functional, cell-based
RPMI-8226 [17] = assay: Cytotoxicity against human RPMI8226 cells assessed as cell viability after 72 hrs by MTT assay; type: functional, cell-based
RPMI-8226 [18] = assay: Induction of apoptosis in human RPMI8226 cells assessed as increase in apoptotic cells at 23 uM after 24 to 48 hrs by annexin V-FITC/propidium iodide staining-based flow cytometric analysis; type: functional, cell-based
RPMI-8226 [19] = assay: Induction of autophagy in human RPMI8226 cells assessed as p62 protein expression at 23 uM after 48 hrs by Western blotting analysis in presence of wortmannin; type: functional, cell-based
RPMI-8226 [20] = assay: Induction of apoptosis in human RPMI8226 cells assessed as caspase-3 activation at 23 uM by flow cytometric analysis in presence of […]; type: functional, cell-based; conditions: TDE = time-dependent effect
RPMI-8226 [21] = assay: Induction of apoptosis in human RPMI8226 cells assessed as caspase-8 activation at 23 uM by flow cytometric analysis in presence of FITC-IETD-FMK; type: functional, cell-based; conditions: TDE = time-dependent effect
RPMI-8226 [22] = assay: Induction of lipid peroxidation in human RPMI8226 cells at 23 uM after 5 to 24 hrs by flow cytometric analysis in presence of alpha-tocopherol; type: functional, cell-based
RPMI-8226 [23] = assay: Induction of reactive oxygen species generation in human RPMI8226 cells at 23 uM after 0.5 to 24 hrs by DCFDA dye-based flow cytometric analysis; type: functional, cell-based
[24] = Displacement of [3H]-DTG from sigma-2 receptor in rat liver homogenates in presence of (+)-pentazocine; type: tissue-based
RPMI-8226 [25] = assay: Induction of apoptosis in human RPMI8226 cells assessed as decrease in mitochondrial membrane potential at 23 uM by JC-1 staining-based flow cytometric analysis; type: functional, cell-based; conditions: TDE = time-dependent effect
RPMI-8226 [26] = assay: Induction of autophagy in human RPMI8226 cells assessed as […] protein expression at 23 uM after 48 hrs by Western blotting analysis in presence of 3-methyladenine; type: functional, cell-based
RPMI-8226 [27] = assay: Induction of apoptosis in human RPMI8226 cells assessed as chromatin condensation at 23 uM after 24 to 48 hrs by DAPI staining-based fluorescence microscopic analysis; type: functional, cell-based
RPMI-8226 [28] = assay: Induction of autophagy in human RPMI8226 cells assessed as p62 protein level at 23 uM after 6 to 96 hrs by Western blotting analysis in presence of alpha-tocopherol; type: functional, cell-based
RPMI-8226 [29] = assay: Induction of apoptosis in human RPMI8226 cells assessed as early apoptotic cells at 23 uM after 48 hrs by annexin V-FITC/propidium iodide staining-based flow cytometric analysis in presence of wortmannin; type: functional, cell-based
[30] = Binding affinity to sigma-2 receptor in rat liver homogenates; type: tissue-based

Chain of Sigma non-opioid intracellular receptor 1 (Cavia porcellus, UniProt Q60492) (Q60492 whole entry): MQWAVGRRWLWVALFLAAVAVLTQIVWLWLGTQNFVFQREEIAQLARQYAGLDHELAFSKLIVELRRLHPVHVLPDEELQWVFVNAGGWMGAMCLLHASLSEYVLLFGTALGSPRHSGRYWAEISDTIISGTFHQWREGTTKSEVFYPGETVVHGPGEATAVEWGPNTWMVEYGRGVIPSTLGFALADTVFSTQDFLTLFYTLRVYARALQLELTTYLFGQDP
Chain of Sigma non-opioid intracellular receptor 1 (Homo sapiens, UniProt Q99720) (Q99720 whole entry): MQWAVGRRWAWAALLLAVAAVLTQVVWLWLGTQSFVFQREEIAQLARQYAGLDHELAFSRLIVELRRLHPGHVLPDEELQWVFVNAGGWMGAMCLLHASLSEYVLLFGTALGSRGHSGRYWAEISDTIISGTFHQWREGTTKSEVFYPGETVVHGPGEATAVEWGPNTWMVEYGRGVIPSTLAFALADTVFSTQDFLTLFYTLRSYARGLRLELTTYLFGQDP

pKi [5]: 7.54
pKi [8]: 8.11
Ratio Ki [15]: 4.5
pKi [24]: 7.42
Compound: OCC[C@@H]1CN(CC2CCCCC2)CCN1Cc1ccc(-c2ccccc2)cc1
pKi [1]: 7.41
Activity (RPMI-8226 [2]): Active
Activity (RPMI-8226 [3]): tde
Activity (HL-60): inactive
Activity (RPMI-8226 [4]): tde
Activity (RPMI-8226 [6]): inactive
Activity (RPMI-8226 [7]): inactive
Activity (RPMI-8226 [9]): Active
Activity (RPMI-8226 [10]): inactive
Ratio Ki (RPMI-8226 [11]): 1.3
Activity (RPMI-8226 [12]): inactive
Activity (RPMI-8226 [13]): Active
Activity (RPMI-8226 [14]): inactive
Activity (RPMI-8226 [16]): inactive
Activity (RPMI-8226 [17]): Dose-dependent effect
pIC50 (RPMI-8226 [17]; RPMI-8226, 72 h): 4.88
Activity (RPMI-8226 [18]): Active
Activity (RPMI-8226 [19]): inactive
Activity (RPMI-8226 [20]): tde
Activity (RPMI-8226 [21]): tde
Activity (RPMI-8226 [22]): inactive
Activity (RPMI-8226 [23]): inactive
Activity (RPMI-8226 [25]): tde
Activity (RPMI-8226 [26]): Active
Activity (RPMI-8226 [27]): Active
Activity (RPMI-8226 [28]): inactive
Activity (RPMI-8226 [29]): Active

Compound: COc1ccc(CN2CCN(Cc3ccccc3)[C@@H](CO)C2)cc1
pKi [30]: 7.15
Ratio Ki [15]: 5.8
